Source: patent US10131652B2, “Pyrimidinyloxy benzene derivatives as herbicides” (E. I. DU PONT DE NEMOURS AND COMPANY, priority 2014, dated 2018)
Where two headings read alike, the source gives them in different places.

Assays:
Type in all cases: in vivo
[1] = tested on: ducksalad (Heteranthera limosa); experiment: Test D flooded paddy test plant response; conditions: Flood (flooded paddy test), visual rating on scale 0 to 100 (0 no effect, 100 complete control), 13 to 15 days
In short: (§1)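 Plants at 2-leaf stage in pots flooded 3 cm above soil; compounds applied directly into paddy water, depth kept throughout. After 13-15 days in greenhouse, visual rating against controls on 0-100 scale (100 = complete control).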

[2] = tested on: barnyardgrass (Echinochloa crus-galli); experiment: Test D flooded paddy test plant response; conditions: Flood (flooded paddy test), visual rating on scale 0 to 100 (0 no effect, 100 complete control), 13 to 15 days
In short: as §1

[3] = tested on: small-flower umbrella sedge (Cyperus difformis); experiment: Test D flooded paddy test plant response; conditions: Flood (flooded paddy test), visual rating on scale 0 to 100 (0 no effect, 100 complete control), 13 to 15 days
In short: as §1

[4] = tested on: rice (Oryza sativa); experiment: Test D flooded paddy test plant response; conditions: Flood (flooded paddy test), visual rating on scale 0 to 100 (0 no effect, 100 complete control), 13 to 15 days
In short: as §1

[5] = tested on: Horseweed; experiment: Test F postemergence plant response; conditions: scale 0 to 100
[6] = tested on: chamomile (scentless chamomile, Matricaria inodora); experiment: Test E pre-/postemergence plant response; conditions: Tripleurospermum inodorum, scale 0 to 100, read-out: Plant response rating, Chamomile; for pest or weed control at 16 g/ha: 16 g ai/ha; for pest or weed control at 31 g/ha: 31 g ai/ha; for pest or weed control at 62 g/ha: 62 g ai/ha; for pest or weed control at 125 g/ha: 125 g ai/ha
In short: (§2)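 Visual scores on a 0–100 scale (100 = complete control) were assigned against untreated controls 7–21 days after treatment in a controlled environment. Compounds, formulated with solvent plus surfactant, were applied to pre-emergence silt-loam sowings or to 1- to 4-leaf plants (2–18 cm) in potting medium.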

[7] = tested on: Italian ryegrass (Lolium multiflorum); experiment: Test E pre-/postemergence plant response; conditions: scale 0 to 100, read-out: Plant response rating, Ryegrass, Italian; for pest or weed control at 16 g/ha: 16 g ai/ha; for pest or weed control at 31 g/ha: 31 g ai/ha; for pest or weed control at 62 g/ha: 62 g ai/ha; for pest or weed control at 125 g/ha: 125 g ai/ha
In short: as §2

[8] = tested on: Russian thistle (Salsola iberica); experiment: Test E pre-/postemergence plant response; conditions: scale 0 to 100
In short: as §2

[9] = tested on: wild mustard (Sinapis arvensis); experiment: Test E pre-/postemergence plant response; conditions: Brassica, scale 0 to 100, read-out: Plant response rating, Mustard, Wild; for pest or weed control at 16 g/ha: 16 g ai/ha; for pest or weed control at 31 g/ha: 31 g ai/ha; for pest or weed control at 62 g/ha: 62 g ai/ha; for pest or weed control at 125 g/ha: 125 g ai/ha
In short: as §2

[10] = tested on: blackgrass (Alopecurus myosuroides); experiment: Test E pre-/postemergence plant response; conditions: scale 0 to 100, read-out: Plant response rating, Blackgrass; for pest or weed control at 16 g/ha: 16 g ai/ha; for pest or weed control at 31 g/ha: 31 g ai/ha; for pest or weed control at 62 g/ha: 62 g ai/ha; for pest or weed control at 125 g/ha: 125 g ai/ha
In short: as §2

Q: `Fc1cccc(Oc2ncc(Br)cn2)c1-c1cc(C(F)F)no1` [Compound 145, 5-bromo-2-[2-[3-(difluoromethyl)-5-isoxazolyl]-3-fluorophenoxy]pyrimidine] was tested. Which “Plant response rating, Ducksalad” value ([1]; 31 g ai/ha) did it give?
A: 80

Q: And the “Plant response rating, Ducksalad” value ([1]; 62 g ai/ha)?
A: 85

Q: What about the “Plant response rating, Ducksalad” value ([1]; 125 g ai/ha) of the same compound?
A: 95

Q: What about the “Plant response rating, Ducksalad” value ([1]; 250 g ai/ha) of the same compound?
A: 95

Q: And the “Plant response rating, Barnyardgrass” value ([2]; 31 g ai/ha)?
A: 0

Q: What about the “Plant response rating, Barnyardgrass” value ([2]; 62 g ai/ha) of the same compound?
A: 0

Q: And the “Plant response rating, Barnyardgrass” value ([2]; 125 g ai/ha)?
A: 0

Q: And the “Plant response rating, Barnyardgrass” value ([2]; 250 g ai/ha)?
A: 35

Q: What about the “Plant response rating, Sedge, Umbrella” value ([3]; 31 g ai/ha) of the same compound?
A: 60

Q: And the “Plant response rating, Sedge, Umbrella” value ([3]; 62 g ai/ha)?
A: 75

Q: And the “Plant response rating, Sedge, Umbrella” value ([3]; 125 g ai/ha)?
A: 90

Q: And the “Plant response rating, Sedge, Umbrella” value ([3]; 250 g ai/ha)?
A: 90

Q: What about the “Plant response rating, Rice” value ([4]; 31 g ai/ha) of the same compound?
A: 0

Q: What about the “Plant response rating, Rice” value ([4]; 62 g ai/ha) of the same compound?
A: 15

Q: And the “Plant response rating, Rice” value ([4]; 125 g ai/ha)?
A: 15

Q: What about the “Plant response rating, Rice” value ([4]; 250 g ai/ha) of the same compound?
A: 35

Q: And the “Plant response rating, Horseweed” value ([5]; 16 g ai/ha Postemergence)?
A: 0

Q: What about the “Plant response rating, Horseweed” value ([5]; 31 g ai/ha Postemergence) of the same compound?
A: 20

Q: And the “Plant response rating, Horseweed” value ([5]; 62 g ai/ha Postemergence)?
A: 20

Q: What about the “Plant response rating, Horseweed” value ([5]; 125 g ai/ha Postemergence) of the same compound?
A: 40

Q: And the pest or weed control at 16 g/ha ([6]; post-emergence, Postemergence)?
A: 20%

Q: What about the pest or weed control at 31 g/ha ([6]; post-emergence, Postemergence) of the same compound?
A: 30%

Q: What about the pest or weed control at 62 g/ha ([6]; post-emergence, Postemergence) of the same compound?
A: 30%

Q: And the pest or weed control at 125 g/ha ([6]; post-emergence, Postemergence)?
A: 30%

Q: And the pest or weed control at 16 g/ha ([6]; pre-emergence, Preemergence)?
A: 5%

Q: And the pest or weed control at 31 g/ha ([6]; pre-emergence, Preemergence)?
A: 100%

Q: What about the pest or weed control at 62 g/ha ([6]; pre-emergence, Preemergence) of the same compound?
A: 100%

Q: And the pest or weed control at 125 g/ha ([6]; pre-emergence, Preemergence)?
A: 100%

Q: What about the pest or weed control at 16 g/ha ([7]; post-emergence, Postemergence) of the same compound?
A: 5%

Q: And the pest or weed control at 31 g/ha ([7]; post-emergence, Postemergence)?
A: 10%

Q: And the pest or weed control at 62 g/ha ([7]; post-emergence, Postemergence)?
A: 25%

Q: And the pest or weed control at 125 g/ha ([7]; post-emergence, Postemergence)?
A: 40%

Q: And the pest or weed control at 16 g/ha ([7]; pre-emergence, Preemergence)?
A: 10%

Q: And the pest or weed control at 31 g/ha ([7]; pre-emergence, Preemergence)?
A: 20%

Q: What about the pest or weed control at 62 g/ha ([7]; pre-emergence, Preemergence) of the same compound?
A: 50%

Q: What about the pest or weed control at 125 g/ha ([7]; pre-emergence, Preemergence) of the same compound?
A: 70%

Q: And the “Plant response rating, Russian Thistle” value ([8]; 16 g ai/ha Postemergence)?
A: 80

Q: What about the “Plant response rating, Russian Thistle” value ([8]; 16 g ai/ha Preemergence) of the same compound?
A: 0

Q: And the “Plant response rating, Russian Thistle” value ([8]; 31 g ai/ha Postemergence)?
A: 85

Q: And the “Plant response rating, Russian Thistle” value ([8]; 31 g ai/ha Preemergence)?
A: 10

Q: And the “Plant response rating, Russian Thistle” value ([8]; 62 g ai/ha Postemergence)?
A: 90

Q: And the “Plant response rating, Russian Thistle” value ([8]; 62 g ai/ha Preemergence)?
A: 60

Q: What about the “Plant response rating, Russian Thistle” value ([8]; 125 g ai/ha Postemergence) of the same compound?
A: 100

Q: And the “Plant response rating, Russian Thistle” value ([8]; 125 g ai/ha Preemergence)?
A: 100

Q: What about the pest or weed control at 16 g/ha ([9]; post-emergence, Postemergence) of the same compound?
A: 100%

Q: And the pest or weed control at 31 g/ha ([9]; post-emergence, Postemergence)?
A: 100%

Q: And the pest or weed control at 62 g/ha ([9]; post-emergence, Postemergence)?
A: 100%

Q: And the pest or weed control at 125 g/ha ([9]; post-emergence, Postemergence)?
A: 100%

Q: What about the pest or weed control at 16 g/ha ([9]; pre-emergence, Preemergence) of the same compound?
A: 95%

Q: What about the pest or weed control at 31 g/ha ([9]; pre-emergence, Preemergence) of the same compound?
A: 100%

Q: What about the pest or weed control at 62 g/ha ([9]; pre-emergence, Preemergence) of the same compound?
A: 100%

Q: And the pest or weed control at 125 g/ha ([9]; pre-emergence, Preemergence)?
A: 100%

Q: And the pest or weed control at 16 g/ha ([10]; post-emergence, Postemergence)?
A: 25%

Q: And the pest or weed control at 31 g/ha ([10]; post-emergence, Postemergence)?
A: 35%

Q: What about the pest or weed control at 62 g/ha ([10]; post-emergence, Postemergence) of the same compound?
A: 65%

Q: And the pest or weed control at 125 g/ha ([10]; post-emergence, Postemergence)?
A: 80%

Q: What about the pest or weed control at 16 g/ha ([10]; pre-emergence, Preemergence) of the same compound?
A: 10%

Q: What about the pest or weed control at 31 g/ha ([10]; pre-emergence, Preemergence) of the same compound?
A: 50%

Q: And the pest or weed control at 62 g/ha ([10]; pre-emergence, Preemergence)?
A: 60%

Q: And the pest or weed control at 125 g/ha ([10]; pre-emergence, Preemergence)?
A: 75%
